Tests used:
[1] = system: B.1.1.7 (alpha) SARS-CoV-2pp; test: microbe, parasite or virus in culture; format: cell-based; details: Severe acute respiratory syndrome coronavirus 2, HEK293, 48 h, read-out: EC50 B.1.1.7 (alpha) SARS-CoV-2pp
SARS-CoV-2pp = test: microbe, parasite or virus in culture; format: cell-based; details: for EC50: Severe acute respiratory syndrome coronavirus 2, HEK293, 48 h, read-out: EC50 SARS-CoV-2pp; for IC50: Severe acute respiratory syndrome coronavirus 2, HEK293, read-out: IC50, inhibition of SARS-CoV-2pp infection of HEK-293-hACE2 cells
[2] = system: SARS CoV-2 2019-nCoV/USA-WA1/2020; test: Efficacy in SARS-CoV2 infected K18-hACE2 mice (lung viral load by plaque assay); format: in vivo; details: 2 h before and 24 h after infection, 3 days post-infection; for effect on SARS-CoV2 viral load in lung homogenates: 100 mg/kg p.o. at 24 h before
BA.2 SARS-CoV-2pp = test: microbe, parasite or virus in culture; format: cell-based; details: Severe acute respiratory syndrome coronavirus 2, HEK293, 48 h, read-out: EC50 BA.2 SARS-CoV-2pp
MERSpp = test: microbe, parasite or virus in culture; format: cell-based, MERS; details: Middle East respiratory syndrome-related coronavirus, HeLa, 48 h, read-out: EC50 MERSpp
[3] = system: B.1.1.28 (gamma) SARS-CoV-2pp; test: microbe, parasite or virus in culture; format: cell-based; details: Severe acute respiratory syndrome coronavirus 2, HEK293, 48 h, read-out: EC50 B.1.1.28 (gamma) SARS-CoV-2pp
AXL kinase = target: T1, AXL kinase (Homo sapiens, UniProt P30530); test: AXL kinase assay (Reaction Biology Hot Spot, 33P-ATP); format: biochemical
T1 construct: purchased Reaction Biology
T1 sequence (P30530 26-894): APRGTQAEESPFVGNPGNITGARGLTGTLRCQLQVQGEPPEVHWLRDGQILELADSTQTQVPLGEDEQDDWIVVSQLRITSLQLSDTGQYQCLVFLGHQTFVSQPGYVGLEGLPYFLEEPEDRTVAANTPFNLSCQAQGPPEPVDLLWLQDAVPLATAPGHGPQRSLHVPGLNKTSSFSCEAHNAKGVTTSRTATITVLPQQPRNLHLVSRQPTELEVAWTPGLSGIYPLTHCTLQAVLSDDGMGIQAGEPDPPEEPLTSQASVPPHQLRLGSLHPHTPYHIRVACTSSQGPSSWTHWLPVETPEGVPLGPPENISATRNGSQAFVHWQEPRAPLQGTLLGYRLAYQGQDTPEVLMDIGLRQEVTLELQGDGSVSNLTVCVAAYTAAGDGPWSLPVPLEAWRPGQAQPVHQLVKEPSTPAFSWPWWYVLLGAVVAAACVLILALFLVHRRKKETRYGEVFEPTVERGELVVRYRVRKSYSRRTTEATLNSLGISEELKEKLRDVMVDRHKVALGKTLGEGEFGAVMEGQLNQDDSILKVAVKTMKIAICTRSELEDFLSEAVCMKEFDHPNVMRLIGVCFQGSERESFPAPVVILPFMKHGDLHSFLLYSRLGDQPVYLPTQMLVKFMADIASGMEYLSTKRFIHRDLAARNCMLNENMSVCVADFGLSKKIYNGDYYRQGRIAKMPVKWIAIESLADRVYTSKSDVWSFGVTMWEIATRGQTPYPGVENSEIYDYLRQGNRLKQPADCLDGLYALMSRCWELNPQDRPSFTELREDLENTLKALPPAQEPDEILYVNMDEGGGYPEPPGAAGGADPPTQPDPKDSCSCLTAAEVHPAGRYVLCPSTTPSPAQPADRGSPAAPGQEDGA

SARS-CoV-1pp = test: microbe, parasite or virus in culture; format: cell-based; details: Severe acute respiratory syndrome coronavirus, HEK293, 48 h, read-out: EC50 SARS-CoV-1pp
A549 cells [4] = test: A549 cell phospholipidosis (NBD-PE staining assay); details: 24 h, dose-range; amiodarone positive control
[5] = system: B.1.351 (beta) SARS-CoV-2pp; test: microbe, parasite or virus in culture; format: cell-based; details: Severe acute respiratory syndrome coronavirus 2, HEK293, 48 h, read-out: EC50 B.1.351 (beta) SARS-CoV-2pp
A549 cells [6] = test: A549 cell vacuolization analysis (phase contrast); details: 5 µM, 24 h
[7] = Pharmacokinetics analysis in mice; details: C57 Bl/6, mouse, plasma, po
[8] = system: B.1.617.2 (delta) SARS-CoV-2pp; test: microbe, parasite or virus in culture; format: cell-based; details: Severe acute respiratory syndrome coronavirus 2, HEK293, 48 h, read-out: EC50 B.1.617.2 (delta) SARS-CoV-2pp
[9] = system: B.1.1.529 (omicron) SARS-CoV-2pp; test: microbe, parasite or virus in culture; format: cell-based; details: Severe acute respiratory syndrome coronavirus 2, HEK293, 48 h, read-out: EC50 B.1.1.529 (omicron) SARS-CoV-2pp
SARS-CoV-2 [10] = test: microbe, parasite or virus in culture; format: cell-based; details: Severe acute respiratory syndrome coronavirus 2, A549, read-out: IC50, inhibition of SARS-CoV-2 infection of A549-hACE2 cells
SARS-CoV-2 [11] = details: ref Dittmar et al., 2021; cited from earlier work
COVID-19 = details: Phase 2 clinical trial; ref BerGenBio, 2022; cited from earlier work

Row | SMILES | EC50 [1] [nM] | EC50 (SARS-CoV-2pp) [nM] | IC50 (SARS-CoV-2pp) [nM] | effect on SARS-CoV2 viral load in lung homogenates [2] | EC50 (BA.2 SARS-CoV-2pp) [nM] | EC50 (MERSpp) [nM] | EC50 [3] [nM] | EC50 (SARS-CoV-1pp) [nM] | phospholipidosis in A549 cells (NBD-PE staining) (A549 cells [4]) | EC50 [5] [nM] | vacuolization in human lung A549 cells (A549 cells [6]) | AUC ([7]; 100 mg/kg) [ng·h/mL] | Cmax ([7]; 100 mg/kg) [ng/mL] | Tmax ([7]; 100 mg/kg) [h] | EC50 [8] [nM] | EC50 [9] [nM] | IC50 (SARS-CoV-2 [10]) [nM] | also measured
1 | c1ccc2c(c1)CCCc1cc(-c3nnc(Nc4ccc5c(c4)CCC(N4CCCC4)CC5)o3)nnc1-2 (centres unmarked) [WYS-633] | 1230 ± 580 | 2520 ± 2260 | 2520 | failed to reduce SARS-CoV2 viral load | 680 ± 290 | 310 ± 120 | 1660 ± 710 | 750 ± 70 | neither compound demonstrated phospholipidosis | 1250 ± 50 | did not | 7920 | 950 | 2 | 1050 ± 370 | 1030 ± 650 | 610 | activity against AXL kinase (in words) (AXL kinase): inactive
2 | FC(F)(F)c1nc(Nc2ccc3c(c2)CCC(N2CCCC2)CC3)n(-c2cc3c(nn2)-c2ccccc2CCC3)n1 (centres unmarked) [WYS-694] | 120 ± 70 | 80 ± 30 | – | – | 450 ± 440 | – | 160 ± 150 | 820 ± 1020 | – | 180 ± 110 | – | – | – | – | 130 ± 90 | 130 ± 120 | – | fold more potent than WYS-633 in inhibiting viral entry (SARS-CoV-2pp): 12.5 fold; reduction of SARS-CoV-2 viral load in lung homogenates ([2]; 30 mg/kg p.o. at 24 h before): more than 4 fold; AUC ([7]; 30 mg/kg): 10700 ng·h/mL; Cmax ([7]; 30 mg/kg): 556 ng/mL; Tmax ([7]; 30 mg/kg): 24 h
3 | Nc1nc(Nc2ccc3c(c2)CC[C@@H](N2CCCC2)CC3)nn1-c1cc2c(nn1)-c1ccccc1CCC2 [Bemcentinib, bemcentinib, reference compound] | 430 ± 180 | 5680 ± 3760 | 5700 | failed to reduce SARS-CoV2 viral load | 160 ± 30 | 90 ± 10 | 420 ± 120 | 910 ± 10 | neither compound demonstrated phospholipidosis | 390 ± 140 | induced significant vacuolization | 33300 | 1760 | 13 | 380 ± 140 | 210 ± 10 | 70 | inhibition of SARS-CoV-2 infection of human lung Calu-3 cells (SARS-CoV-2 [11]): inhibits SARS-CoV-2 infection of human lung Calu-3 cells; clinical response in patients hospitalized with COVID-19 (COVID-19): improved clinical response and key secondary endpoints

From PMC12119275 (Frontiers in Molecular Biosciences, 2025)
